# Experimental data taken from a melting point compilation (Tetko et al.; mined from patent text by program, amines drawn as free bases though some values may be those of a salt).
row,Structure (SMILES),melting point
1,CCN(CC)CCNc1cccc2c1C(=O)c1c(NCCN(CC)CC)cccc1C2=O,104 to 106 °C
2,OC1CCC2(c3c[nH]cn3)Cc3ccccc3C12 (centres undefined),183 to 186 °C
3,Brc1ccccc1C=Cc1ccco1,108 to 110 °C
4,COC(=O)NC12CC=CCC1CCc1ccc(OC)cc12 (centres undefined),120 to 122 °C
5,COc1ccc(C(O)CCN2CC=C(c3ccc(Cl)cc3)CC2)c(OC)c1 (centres undefined),112 to 114 °C
6,NC(=O)c1cc2n(n1)-c1ccc(Cl)cc1C(c1ccccc1)=NC2,216 to 218 °C
7,COCC1CN(c2cc3c(cc2F)c(=O)c(C(=O)O)cn3C2CC2)CCN1 (centres undefined),215 to 216 °C
8,COC(=O)CCCC#Cc1cc(Cl)ccc1NS(=O)(=O)c1ccc2nc(C)sc2c1,103 to 106 °C
9,O=C1c2cccc(F)c2C(=O)N1CCN1CCC(c2noc3cc(F)ccc23)CC1,142 to 143 °C
10,Cc1cc(C#N)cc(CBr)c1,80 to 81 °C
11,NC(=NO)c1nc(Cl)c(Cl)[nH]1,270 to 275 °C
12,COc1ccc2cc(C#N)ccc2n1,163 to 165 °C
13,CC(C)NC(=O)NNC=NC(=O)c1nc(F)c(N)nc1N,221 °C
14,CN(C)CCNC(=O)c1cccc2cc[nH]c12,100 to 102 °C
15,CON=C1CN(c2nc3c(cc2F)c(=O)c(C(=O)O)cn3C2CC2)CC12CN(C)C2,225 to 227 °C
16,CC1(C)CC(C(O)CNc2nc(NCC(O)C3CC(C)(C)NC(C)(C)C3)nc(NCC(O)C3CC(C)(C)NC(C)(C)C3)n2)CC(C)(C)N1 (centres undefined),176 to 178 °C
17,COc1ccc(C(=O)c2c(C)n3c4c(cccc24)OCC3CN2CCOCC2)cc1 (centres undefined),182 to 189 °C
18,CC(=O)Nc1ccc(Cc2nc3cc(CC4SC(=O)NC4=O)ccc3o2)cc1 (centres undefined),233 to 236 °C
19,O=C(Nc1ccccn1)Nc1cnns1,227 °C
20,CN1CCCC(O)(c2nccnc2Cl)C1 (centres undefined),111 to 112 °C
21,COc1c(OS(C)(=O)=O)ccc2[nH]ncc12,130 to 131 °C
22,COc1cc(CCC2(C)OCc3c2cnc(C)c3O)cc(OC)c1OC (centres undefined),219 °C

row,Structure (SMILES),melting point
1,CCOC(=O)c1ncc2[nH]c3ccc(SC)cc3c2n1,265 to 266 °C
2,Nc1ncc(Sc2ccc(F)cc2F)s1,116 to 117 °C
3,CCOC(=O)c1cc(O)c2nc(C)n(C)c2c1,272 to 273 °C
4,CC1=C(c2ccc(O)cc2)C(=O)c2ccc(O)cc21,138 to 146 °C
5,COCC(O)COc1ccc2cc(S(N)(=O)=O)sc2c1 (centres undefined),128 to 129 °C
6,CCOC(=O)c1c(Cn2cnnc2)nc2cc(OC)c(OC)cc2c1-c1ccc(OC)c(OC(C)C)c1,170 to 171 °C
7,CC1(C)OCC[C@@H]2[C@H](C(O)CBr)C(=O)N21 (some centres undefined),141 to 142 °C
8,CC1(C)OCCCOc2c[nH]cc2OCCCOC1(C)C,48 to 50 °C
9,CNC(Cc1ccc(Cl)nc1)=C(N)C(=O)C(F)(F)F,114 °C
10,Nc1c(-c2csc(-c3ccncc3)n2)c(=O)[nH]c2ccc(Cl)cc12,> 220 °C
11,CN(Cc1cccc(-c2ccc(CC3SC(=O)NC3=O)cc2)c1)C(=O)c1cc(Cl)cc(Cl)c1 (centres undefined),106 °C
12,CC(C)CCC(O)C(C(=O)C(Cc1c[nH]cn1)N(C)C(=O)C(Cc1ccccc1)OC(=O)N(C)CCN(C)C(=O)C(C)C)C(N)C1CCCCC1 (centres undefined),68 to 72 °C
13,C=CC(OC(C)OCC)C(NC(=O)OC(C)(C)C)c1ccccc1 (centres undefined),66 to 72 °C
14,O=C1N=C(c2ccc(C(=O)Cl)cc2)C(c2ccc(C(=O)Cl)cc2)O1 (centres undefined),> 300 °C
15,O=C1N(Cc2ccc(C(F)(F)F)o2)c2ccccc2C12COc1cc3c(cc12)OC(F)(F)O3 (centres undefined),59 to 60 °C
16,CCOC(=O)CCn1ccn(C2CCc3ccccc3C2)c1=S (centres undefined),71 to 73 °C
17,CC(C)(C)c1nc2c(Cl)cc(F)c(-n3c(=O)cc(C(F)(F)F)n(N)c3=O)c2o1,90 to 92 °C
18,NS(=O)(=O)c1ccc(-c2cccn2-c2ccc(Cl)cc2)cc1,179 to 181 °C
19,O=C1NC(Cc2c[nH]c3ccccc23)C(=O)N1CCCN1CCOCC1 (centres undefined),158 to 160 °C
20,O=S1(=O)NC2CCCN2c2ccc(O)cc21 (centres undefined),237 to 242 °C
21,CC1CC(c2cc3cccc(F)c3s2)CCN1 (centres undefined),45 to 47 °C
22,COc1cc2c(cc1OC)CN(CCc1ccc(NC(=O)c3cccc4c(=O)c5cccc(OC)c5[nH]c34)c(C)c1)CC2,200 to 201 °C

# The remaining lines, values ahead:
row,melting point,Structure (SMILES)
1,157 to 159 °C,O=S(=O)(Nc1cccc(OCc2ccc3ccccc3n2)c1)c1ccc(Cl)cc1
2,163 to 165 °C,C#CCNC(=O)c1ccc2ccccc2c1
3,155 to 156 °C,CC(=O)OCC1CCCN(C(=O)c2ccc(NC(=O)c3ccccc3C)cc2)c2ccccc21 (centres undefined)
4,166 to 167 °C,CCC(=O)Nc1cc(-c2c(-c3ccc(F)c(C)c3)nc3cccnn23)ccn1
5,170 °C,CC(=O)c1cccc(NC(=O)NCC(=O)N(CC(=O)N(C)c2ccccc2)c2ccccc2)c1
6,121 to 122 °C,CCCCCS(=O)(=O)NC(=O)CCCc1cc(OCCCC)nn1Cc1ccc(Cl)cc1Cl
7,97 °C,CCOC(=O)COc1ccc2c(-c3ccc(Cl)cc3)noc2c1
8,193 to 194 °C,CC(=O)OC1CCCN(C(=O)c2ccc(NC(=O)c3ccccc3C)cc2)c2ccccc21 (centres undefined)
9,170 °C,Cc1cc(O)c(SCc2cccc3ccccc23)c(=O)o1
10,141 to 142 °C,CC(C)Cc1nn(C)c(=O)c2c(SCCCO)n(Cc3cccc4ccccc34)nc12
11,269 °C,CCCCN1C(=O)CCC(C)(C)c2cc(C(=O)Nc3ccc(C(=O)O)cc3)ccc21
12,135 to 137 °C,COc1ccc(Cl)c(C(=O)NCCc2ccc(S(=O)(=O)NC(=O)c3ccc(C(=O)NCCO)nc3)cc2)c1
13,223 to 224 °C,COC(=O)c1ccc(CNC(=O)c2[nH]c(-c3ccoc3)cc2-c2ccc(O)cc2)cc1
14,84 to 86 °C,CCCCc1nn(-c2cc([N+](=O)[O-])ccc2Cl)c(=O)n1Cc1ccc(-c2cc(CCC)ccc2S(=O)(=O)NC(C)(C)C)cc1F
15,187 to 189 °C,O=C1c2ccc(Cl)cc2C(=O)N1c1ccccc1
16,147 to 149 °C,CONC(=O)Nc1ccc(-c2sc3c(c2CN(C)C(C)(C(=O)O)c2ccccc2)c(=O)n(-c2ccccc2)c(=O)n3Cc2c(F)cccc2F)cc1 (centres undefined)
17,150 to 151 °C,CCCCc1nc2c(N)nc3ccccc3c2n1CCCCCCCCNC(=O)c1ccccc1
18,101 to 103 °C,CSC(=Nc1ccccc1)N(c1ccccc1)c1nc(C)cc(C)n1
19,146 to 147 °C,Cc1oc(-c2ccccc2)nc1COc1ccc(CCC2SC(=O)NC2=O)cc1 (centres undefined)
20,149 to 150 °C,CCOC(=O)CN1C(=O)c2ccc3ccccc3c2S1(=O)=O
21,183 to 184 °C,CCOC(=O)c1ccc(C(=O)Nc2ccc3c(c2)CCC(C)(C)C(=O)N3C)cc1
22,64 to 65 °C,CCOC(=O)CCc1ccc(OCc2ccc(OCc3nc(-c4ccccc4)oc3C)cc2)cc1OCC
23,91 to 94 °C,COc1ccc(CCCC(CCc2ccc(OC)cc2)C(=O)O)cc1 (centres undefined)
24,64 °C,N#CCCCCCCc1nc(-c2ccc(Cl)cc2)c(-c2ccc(Cl)cc2)o1
25,92 °C,O=C1COC(CCCOC(=O)c2ccccc2)(c2ccc(Cl)c(Cl)c2)CN1 (centres undefined)
